Test results published in patent US12479847B2 (DANA-FARBER CANCER INSTITUTE, INC., priority 2019, dated 2025).

Columns and labels:
Experiment in all cases: KINOMEscan (ScanMAX) kinase profiling
Assay type in all cases: binding
panel of 468 kinases [1] = biological target: T1, panel of 468 kinases (Homo sapiens, UniProt Q9Y6E0); conditions: MST3; 1 μM; read-out: % control
T1 construct: purchased KINOMEscan (ScanMAX) service

panel of 468 kinases [2] = biological target: T2, panel of 468 kinases (Homo sapiens, UniProt Q8N752); conditions: CSNK1A1L; 1 μM; read-out: % control
T2 construct: purchased KINOMEscan (ScanMAX) service
T2 sequence (Q8N752 1-337): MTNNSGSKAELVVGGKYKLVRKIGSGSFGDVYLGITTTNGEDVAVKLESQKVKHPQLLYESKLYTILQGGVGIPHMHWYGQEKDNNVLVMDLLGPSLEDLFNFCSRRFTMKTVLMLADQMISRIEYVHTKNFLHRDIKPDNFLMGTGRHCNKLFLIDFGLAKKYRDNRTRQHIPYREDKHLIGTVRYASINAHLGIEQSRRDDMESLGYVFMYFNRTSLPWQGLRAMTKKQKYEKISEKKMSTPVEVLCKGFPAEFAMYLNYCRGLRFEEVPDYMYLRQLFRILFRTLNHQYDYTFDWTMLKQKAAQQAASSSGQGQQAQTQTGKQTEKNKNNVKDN

panel of 468 kinases [3] = biological target: T3, panel of 468 kinases (Homo sapiens, UniProt P51957); conditions: NEK4; 1 μM; read-out: % control
T3 construct: purchased KINOMEscan (ScanMAX) service
T3 sequence (P51957 whole entry): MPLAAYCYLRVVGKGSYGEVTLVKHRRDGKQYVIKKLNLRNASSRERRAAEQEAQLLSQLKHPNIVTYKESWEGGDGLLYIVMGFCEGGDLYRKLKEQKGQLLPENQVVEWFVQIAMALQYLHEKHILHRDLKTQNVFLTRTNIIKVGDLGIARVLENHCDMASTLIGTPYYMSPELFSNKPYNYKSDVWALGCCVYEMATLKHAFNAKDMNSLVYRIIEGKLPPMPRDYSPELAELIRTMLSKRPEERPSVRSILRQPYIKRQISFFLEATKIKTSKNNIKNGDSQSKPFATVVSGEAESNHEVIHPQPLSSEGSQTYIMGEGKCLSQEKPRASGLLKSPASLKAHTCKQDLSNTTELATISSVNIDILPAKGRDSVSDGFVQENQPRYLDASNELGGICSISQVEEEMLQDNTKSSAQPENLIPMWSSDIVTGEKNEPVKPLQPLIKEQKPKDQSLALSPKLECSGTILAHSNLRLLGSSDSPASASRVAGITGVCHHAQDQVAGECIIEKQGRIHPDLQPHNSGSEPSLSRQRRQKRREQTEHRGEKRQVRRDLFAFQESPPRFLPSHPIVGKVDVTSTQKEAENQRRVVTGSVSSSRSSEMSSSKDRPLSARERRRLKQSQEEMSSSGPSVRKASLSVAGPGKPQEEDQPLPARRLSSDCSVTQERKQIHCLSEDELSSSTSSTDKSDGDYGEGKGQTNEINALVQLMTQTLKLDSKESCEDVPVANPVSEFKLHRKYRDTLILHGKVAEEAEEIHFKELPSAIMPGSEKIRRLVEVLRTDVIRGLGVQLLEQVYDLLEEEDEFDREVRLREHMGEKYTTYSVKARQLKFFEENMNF

panel of 468 kinases [4] = biological target: T4, panel of 468 kinases (Homo sapiens, UniProt P00533, T790M); conditions: EGFR(T790M); 1 μM; read-out: % control
T4 construct: purchased KINOMEscan (ScanMAX) service
T4 sequence (P00533 25-1210 T790M): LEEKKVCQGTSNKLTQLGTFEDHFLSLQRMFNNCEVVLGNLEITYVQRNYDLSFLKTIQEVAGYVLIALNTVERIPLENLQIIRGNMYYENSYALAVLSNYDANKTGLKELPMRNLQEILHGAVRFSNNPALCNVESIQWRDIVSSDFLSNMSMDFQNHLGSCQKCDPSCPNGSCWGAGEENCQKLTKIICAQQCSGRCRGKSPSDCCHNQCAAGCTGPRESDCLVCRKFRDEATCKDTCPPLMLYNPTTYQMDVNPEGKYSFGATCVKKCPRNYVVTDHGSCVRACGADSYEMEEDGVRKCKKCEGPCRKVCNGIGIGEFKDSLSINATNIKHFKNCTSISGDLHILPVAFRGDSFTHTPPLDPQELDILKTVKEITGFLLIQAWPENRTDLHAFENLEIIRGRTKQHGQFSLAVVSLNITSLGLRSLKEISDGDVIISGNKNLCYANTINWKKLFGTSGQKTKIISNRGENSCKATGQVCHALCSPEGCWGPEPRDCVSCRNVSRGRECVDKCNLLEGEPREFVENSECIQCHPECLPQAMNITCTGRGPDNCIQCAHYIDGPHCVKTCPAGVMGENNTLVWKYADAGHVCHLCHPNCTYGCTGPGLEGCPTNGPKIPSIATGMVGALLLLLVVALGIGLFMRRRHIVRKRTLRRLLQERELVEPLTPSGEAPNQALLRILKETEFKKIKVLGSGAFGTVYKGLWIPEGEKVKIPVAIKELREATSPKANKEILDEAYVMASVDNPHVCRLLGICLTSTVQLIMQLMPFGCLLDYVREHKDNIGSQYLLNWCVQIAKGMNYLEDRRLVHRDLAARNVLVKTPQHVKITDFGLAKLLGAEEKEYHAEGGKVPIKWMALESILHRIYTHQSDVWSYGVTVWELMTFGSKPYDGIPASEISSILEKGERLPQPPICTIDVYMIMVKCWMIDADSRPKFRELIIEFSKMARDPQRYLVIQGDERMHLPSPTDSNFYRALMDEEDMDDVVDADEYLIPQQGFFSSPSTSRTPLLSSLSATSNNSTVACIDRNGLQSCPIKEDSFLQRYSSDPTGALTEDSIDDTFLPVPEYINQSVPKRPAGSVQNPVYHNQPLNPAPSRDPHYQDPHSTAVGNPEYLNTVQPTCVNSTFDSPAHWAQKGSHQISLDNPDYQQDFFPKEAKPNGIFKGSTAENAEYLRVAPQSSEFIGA

panel of 468 kinases [5] = biological target: T5, panel of 468 kinases (Homo sapiens, UniProt O00506); conditions: YSK1; 1 μM; read-out: % control
T5 construct: purchased KINOMEscan (ScanMAX) service
T5 sequence (O00506 whole entry): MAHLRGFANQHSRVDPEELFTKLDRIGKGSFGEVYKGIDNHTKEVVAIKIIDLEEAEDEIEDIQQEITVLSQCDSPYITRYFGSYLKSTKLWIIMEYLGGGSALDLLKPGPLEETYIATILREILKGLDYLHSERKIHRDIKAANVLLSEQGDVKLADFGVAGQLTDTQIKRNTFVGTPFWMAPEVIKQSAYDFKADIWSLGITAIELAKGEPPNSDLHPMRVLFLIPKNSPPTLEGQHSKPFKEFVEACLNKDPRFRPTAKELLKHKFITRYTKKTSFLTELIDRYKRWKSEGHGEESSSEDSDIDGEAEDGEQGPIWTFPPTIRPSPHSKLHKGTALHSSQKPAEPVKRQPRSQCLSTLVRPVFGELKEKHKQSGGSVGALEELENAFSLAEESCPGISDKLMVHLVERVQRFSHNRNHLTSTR

panel of 468 kinases [6] = biological target: T6, panel of 468 kinases (Homo sapiens, UniProt Q96L34); conditions: MARK4; 1 μM; read-out: % control
T6 construct: purchased KINOMEscan (ScanMAX) service
T6 sequence (Q96L34 1-752): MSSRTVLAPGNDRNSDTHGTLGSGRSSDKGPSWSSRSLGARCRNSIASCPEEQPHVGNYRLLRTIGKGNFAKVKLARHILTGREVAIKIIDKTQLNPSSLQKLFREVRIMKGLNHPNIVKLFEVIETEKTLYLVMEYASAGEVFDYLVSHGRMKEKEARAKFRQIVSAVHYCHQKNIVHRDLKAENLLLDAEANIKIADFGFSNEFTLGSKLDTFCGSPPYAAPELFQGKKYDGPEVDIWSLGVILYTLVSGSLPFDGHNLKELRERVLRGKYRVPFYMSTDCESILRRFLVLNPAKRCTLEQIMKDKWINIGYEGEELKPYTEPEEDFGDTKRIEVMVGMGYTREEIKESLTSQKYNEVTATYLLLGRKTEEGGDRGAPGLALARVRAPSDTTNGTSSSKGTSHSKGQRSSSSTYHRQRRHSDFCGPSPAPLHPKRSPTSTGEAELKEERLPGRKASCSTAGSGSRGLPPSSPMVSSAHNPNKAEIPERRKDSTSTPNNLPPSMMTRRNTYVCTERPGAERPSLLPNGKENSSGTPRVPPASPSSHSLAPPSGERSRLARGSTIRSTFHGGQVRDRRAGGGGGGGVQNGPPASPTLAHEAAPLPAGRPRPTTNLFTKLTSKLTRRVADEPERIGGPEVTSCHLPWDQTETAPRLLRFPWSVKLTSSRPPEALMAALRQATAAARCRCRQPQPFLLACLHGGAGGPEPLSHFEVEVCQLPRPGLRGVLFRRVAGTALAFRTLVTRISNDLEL

panel of 468 kinases [7] = biological target: T7, panel of 468 kinases (Homo sapiens, UniProt Q9UM73, L1196M); conditions: ALK(L1196M); 1 μM; read-out: % control
T7 construct: purchased KINOMEscan (ScanMAX) service

panel of 468 kinases [8] = biological target: T8, panel of 468 kinases (Homo sapiens, UniProt Q9Y616); conditions: IRAK3; 1 μM; read-out: % control
T8 construct: purchased KINOMEscan (ScanMAX) service
T8 sequence (Q9Y616 1-596): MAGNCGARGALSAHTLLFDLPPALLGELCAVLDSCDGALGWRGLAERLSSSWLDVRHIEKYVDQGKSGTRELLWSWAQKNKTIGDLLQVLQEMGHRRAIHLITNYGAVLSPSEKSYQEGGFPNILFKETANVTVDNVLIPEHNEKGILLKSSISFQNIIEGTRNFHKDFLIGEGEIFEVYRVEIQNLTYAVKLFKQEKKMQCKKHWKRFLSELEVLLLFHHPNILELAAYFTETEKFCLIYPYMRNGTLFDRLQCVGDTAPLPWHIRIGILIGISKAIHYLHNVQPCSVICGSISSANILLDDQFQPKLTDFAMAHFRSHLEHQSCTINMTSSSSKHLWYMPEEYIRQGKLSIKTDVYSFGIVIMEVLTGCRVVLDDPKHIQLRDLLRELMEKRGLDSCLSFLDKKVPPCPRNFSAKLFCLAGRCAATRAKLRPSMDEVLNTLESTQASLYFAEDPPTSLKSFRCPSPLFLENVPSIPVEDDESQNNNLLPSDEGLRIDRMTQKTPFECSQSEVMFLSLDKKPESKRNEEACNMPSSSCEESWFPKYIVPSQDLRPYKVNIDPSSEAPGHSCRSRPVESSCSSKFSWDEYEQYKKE

panel of 468 kinases [9] = biological target: T9, panel of 468 kinases (Homo sapiens, UniProt Q9BYP7); conditions: WNK3; 1 μM; read-out: % control
T9 construct: purchased KINOMEscan (ScanMAX) service

panel of 468 kinases [10] = biological target: T10, panel of 468 kinases (Homo sapiens, UniProt P36894); conditions: BMPR1A; 1 μM; read-out: % control
T10 construct: purchased KINOMEscan (ScanMAX) service
T10 sequence (P36894 24-532): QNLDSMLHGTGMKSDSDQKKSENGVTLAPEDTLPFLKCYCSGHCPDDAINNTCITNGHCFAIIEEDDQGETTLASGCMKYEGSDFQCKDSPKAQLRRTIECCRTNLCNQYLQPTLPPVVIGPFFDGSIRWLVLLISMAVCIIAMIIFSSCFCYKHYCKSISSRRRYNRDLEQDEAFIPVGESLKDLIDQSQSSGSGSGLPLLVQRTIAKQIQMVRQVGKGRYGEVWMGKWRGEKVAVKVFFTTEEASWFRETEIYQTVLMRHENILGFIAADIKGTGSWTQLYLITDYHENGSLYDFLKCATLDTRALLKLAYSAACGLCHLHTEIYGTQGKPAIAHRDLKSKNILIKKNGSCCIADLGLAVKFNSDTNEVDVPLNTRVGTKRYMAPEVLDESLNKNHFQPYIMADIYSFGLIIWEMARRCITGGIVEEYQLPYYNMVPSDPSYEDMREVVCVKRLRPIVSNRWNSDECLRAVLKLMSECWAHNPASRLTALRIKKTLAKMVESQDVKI

panel of 468 kinases [11] = biological target: T11, panel of 468 kinases (Homo sapiens, UniProt Q8NEV4); conditions: MYO3A; 1 μM; read-out: % control
T11 construct: purchased KINOMEscan (ScanMAX) service
T11 sequence (Q8NEV4 whole entry): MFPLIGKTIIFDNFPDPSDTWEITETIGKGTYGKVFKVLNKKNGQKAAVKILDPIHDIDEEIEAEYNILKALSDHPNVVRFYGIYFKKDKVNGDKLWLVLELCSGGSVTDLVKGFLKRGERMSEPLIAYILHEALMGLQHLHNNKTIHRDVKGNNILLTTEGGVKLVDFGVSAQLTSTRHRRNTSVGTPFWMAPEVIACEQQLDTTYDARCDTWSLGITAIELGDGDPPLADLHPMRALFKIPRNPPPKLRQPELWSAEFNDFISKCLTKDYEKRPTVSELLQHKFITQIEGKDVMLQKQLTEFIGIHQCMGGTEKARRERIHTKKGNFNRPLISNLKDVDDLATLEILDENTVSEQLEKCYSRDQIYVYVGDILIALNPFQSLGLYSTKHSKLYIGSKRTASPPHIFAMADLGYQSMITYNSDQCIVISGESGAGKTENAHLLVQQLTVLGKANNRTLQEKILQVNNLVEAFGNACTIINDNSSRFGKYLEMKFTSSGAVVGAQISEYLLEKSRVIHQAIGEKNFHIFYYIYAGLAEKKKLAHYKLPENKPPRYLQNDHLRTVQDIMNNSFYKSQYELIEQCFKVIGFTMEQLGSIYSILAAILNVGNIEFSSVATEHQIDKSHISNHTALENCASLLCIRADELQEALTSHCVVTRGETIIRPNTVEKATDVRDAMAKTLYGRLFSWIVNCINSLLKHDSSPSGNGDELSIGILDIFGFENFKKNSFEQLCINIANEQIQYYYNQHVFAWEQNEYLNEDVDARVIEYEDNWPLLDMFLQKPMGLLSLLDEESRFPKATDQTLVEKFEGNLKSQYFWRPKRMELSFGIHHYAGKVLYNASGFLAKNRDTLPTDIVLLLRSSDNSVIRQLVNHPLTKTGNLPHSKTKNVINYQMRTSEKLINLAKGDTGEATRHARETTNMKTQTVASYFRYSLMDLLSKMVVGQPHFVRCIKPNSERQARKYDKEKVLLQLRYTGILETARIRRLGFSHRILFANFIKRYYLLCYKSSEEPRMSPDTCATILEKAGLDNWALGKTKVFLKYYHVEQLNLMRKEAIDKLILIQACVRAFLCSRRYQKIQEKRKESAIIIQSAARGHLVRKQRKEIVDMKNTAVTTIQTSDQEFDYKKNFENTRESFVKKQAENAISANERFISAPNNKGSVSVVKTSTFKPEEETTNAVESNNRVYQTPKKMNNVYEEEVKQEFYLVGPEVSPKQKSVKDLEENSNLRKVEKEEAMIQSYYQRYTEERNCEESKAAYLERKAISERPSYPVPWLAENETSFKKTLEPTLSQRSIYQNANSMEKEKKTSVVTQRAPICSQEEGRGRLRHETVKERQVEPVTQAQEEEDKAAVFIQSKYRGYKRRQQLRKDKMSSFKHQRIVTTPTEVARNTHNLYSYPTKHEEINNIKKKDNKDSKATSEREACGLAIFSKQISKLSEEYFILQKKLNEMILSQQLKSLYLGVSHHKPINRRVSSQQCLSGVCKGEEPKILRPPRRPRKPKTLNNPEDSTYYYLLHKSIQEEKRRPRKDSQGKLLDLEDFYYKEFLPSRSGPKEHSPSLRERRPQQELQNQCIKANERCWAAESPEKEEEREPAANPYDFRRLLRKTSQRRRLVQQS

panel of 468 kinases [12] = biological target: T12, panel of 468 kinases (Homo sapiens, UniProt Q9BX84); conditions: TRPM6; 1 μM; read-out: % control
T12 construct: purchased KINOMEscan (ScanMAX) service

T1 sequence (Q9Y6E0 whole entry): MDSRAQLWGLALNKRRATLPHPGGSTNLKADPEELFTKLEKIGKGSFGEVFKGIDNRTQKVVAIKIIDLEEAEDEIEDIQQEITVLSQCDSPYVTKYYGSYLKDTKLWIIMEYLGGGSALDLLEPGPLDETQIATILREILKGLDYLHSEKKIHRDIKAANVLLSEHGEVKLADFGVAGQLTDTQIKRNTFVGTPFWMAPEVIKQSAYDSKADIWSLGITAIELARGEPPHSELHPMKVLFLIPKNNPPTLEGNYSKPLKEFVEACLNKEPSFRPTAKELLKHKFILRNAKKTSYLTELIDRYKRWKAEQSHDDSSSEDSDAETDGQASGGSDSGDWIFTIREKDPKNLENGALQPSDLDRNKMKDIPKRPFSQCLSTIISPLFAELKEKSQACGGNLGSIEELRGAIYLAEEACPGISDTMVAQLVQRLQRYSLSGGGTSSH

Row | SMILES | remaining binding at 1 µM (panel of 468 kinases [1]) | remaining binding at 1 µM (panel of 468 kinases [2]) | remaining binding at 1 µM (panel of 468 kinases [3]) | remaining binding at 1 µM (panel of 468 kinases [4]) | remaining binding at 1 µM (panel of 468 kinases [5]) | remaining binding at 1 µM (panel of 468 kinases [6]) | remaining binding at 1 µM (panel of 468 kinases [7]) | remaining binding at 1 µM (panel of 468 kinases [8]) | remaining binding at 1 µM (panel of 468 kinases [9]) | remaining binding at 1 µM (panel of 468 kinases [10]) | remaining binding at 1 µM (panel of 468 kinases [11]) | remaining binding at 1 µM (panel of 468 kinases [12])
1 | CNc1nc(Nc2ccc(C(=O)N3CCC(N4CCOCC4)CC3)c3c2OCO3)nc2[nH]cc(Cl)c12 [Compound 75, (7-((5-chloro-4-(methylamino)-7H-pyrrolo[2,3-d]pyrimidin-2-yl)amino)benzo[d][1,3]dioxol-4-yl)(4-morpholinopiperidin-1-yl)methanone] | 98% | 70% | 100% | 63% | 100% | 96% | 27% | 93% | 93% | 85% | 98% | 85%
2 | CNc1nc(Nc2ccc(S(=O)(=O)N3CCC(N4CCOCC4)CC3)cc2OC)nc2[nH]cc(Cl)c12 [Compound 12, 5-chloro-N2-(2-methoxy-4-((4-morpholinopiperidin-1-yl)sulfonyl)phenyl)-N4-methyl-7H-pyrrolo[2,3-d]pyrimidine-2,4-diamine] | 97% | 56% | 100% | 75% | 100% | 98% | 11% | 100% | 100% | 96% | 100% | 79%
3 | CNc1nc(Nc2ccc(P3(=O)CCN(C4CCOCC4)CC3)cc2OC)nc2[nH]cc(Cl)c12 [Compound 77, 4-(4-((5-chloro-4-(methylamino)-7H-pyrrolo[2,3-d]pyrimidin-2-yl)amino)-3-methoxyphenyl)-1-(tetrahydro-2H-pyran-4-yl)-1,4-azaphosphinane 4-oxide] | 88% | 36% | 100% | 55% | 100% | 97% | 7.1% | 94% | 98% | 96% | 62% | 88%
